Laboratory results reported in patent US11033547B2, “Carboxamide-pyrimidine derivatives as SHP2 antagonists” (Merck Patent GmbH, priority 2019, dated 2021).
pIC50: −log10 of the molar value. Read-outs that look alike come from different tables or passages of the source.

Legend:
[1] = system: pERK level in KYSE520 cells; assay: p-Erk cellular assay in KYSE520 (Mesoscale); format: cell-based; conditions: 2 h incubation, read-out: pERK1/2 in KYSE520 IC50
Protocol: (§1) p-Erk Cellular Assay in MDA-MB-468 and KYSE520:
(§2) The effect of SHP2 inhibitors on pERK level was assessed using phospho-specific antibody using Mesoscale quantification platform. For measuring change in pERK levels using mesoscale, 30,000 cells of MDA MB468 and KYSE520 cells were plated in 96-well tissue culture treated plate in 175 ul volume of media. After an overnight incubation at 37° C., various SHP2 inhibitors were added in different concentration to each well maintaining duplicate wells across plates and incubated with compounds for 2 h at 37° C. followed by a wash with ice cold PBS buffer. The cells were then lysed in lysis buffer and processed and analyzed for p-ERK/ERK as per manufacturer's instructions (Mesoscale discovery, cat No. K15107D-3).

[2] = system: pERK level in MDA-MB-468 cells; assay: p-Erk cellular assay in MDA-MB-468 (Mesoscale); format: cell-based; conditions: 2 h incubation, read-out: pERK1/2 in MDA-MB-468 IC50
Protocol: as §1, §2

[3] = molecular target: Full length SHP2 protein (Recombinant Human SHP-2) (Homo sapiens, UniProt Q06124); assay: SHP2 biochemical assay (DiFMUP substrate, activating peptide IRSI_2pY); conditions: DiFMUP substrate, activating peptide IRSI_2pY, 60 min at RT; read-out: SHP-2 Biochemical assay IC50
Protocol: The inhibition of SHP2 by compounds of the invention was monitored using the surrogate substrate DiFMUP after protein activation by a peptide bearing two appropriately spaced phosphotyrosine. […] The generation of the DiFMU product by activated SHP2 was monitored through Fluorescence measurement with a PerkinElmer Envision reader.
The inhibitor dose response curves were analyzed with Genedata Screener.

Full length SHP2 protein (Recombinant Human SHP-2), sequence (Q06124 2-593 limits assumed): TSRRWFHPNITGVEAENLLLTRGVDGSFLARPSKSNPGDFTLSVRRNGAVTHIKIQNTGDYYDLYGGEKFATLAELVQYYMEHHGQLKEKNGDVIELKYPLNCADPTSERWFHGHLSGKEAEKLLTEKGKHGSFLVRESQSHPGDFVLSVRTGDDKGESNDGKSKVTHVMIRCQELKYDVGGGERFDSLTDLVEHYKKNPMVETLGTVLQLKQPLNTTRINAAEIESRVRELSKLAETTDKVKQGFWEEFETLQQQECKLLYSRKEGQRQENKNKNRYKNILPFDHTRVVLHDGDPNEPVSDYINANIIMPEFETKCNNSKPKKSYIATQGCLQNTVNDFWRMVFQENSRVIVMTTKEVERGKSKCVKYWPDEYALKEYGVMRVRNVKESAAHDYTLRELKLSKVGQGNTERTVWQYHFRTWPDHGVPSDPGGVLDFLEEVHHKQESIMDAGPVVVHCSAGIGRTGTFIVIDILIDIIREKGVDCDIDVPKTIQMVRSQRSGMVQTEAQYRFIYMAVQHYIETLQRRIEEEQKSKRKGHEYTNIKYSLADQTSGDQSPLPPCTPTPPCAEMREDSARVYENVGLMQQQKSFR

| SMILES | pIC50 ([1]; Homo sapiens, KYSE-520, 2 h) | pIC50 ([2]; Homo sapiens, MDA-MB-468, 2 h) | pIC50 [3] | pIC50 [1] | pIC50 [2] |
| --- | --- | --- | --- | --- | --- |
| CC1(N)CCN(c2nc(N)c(-c3cccc(Cl)c3Cl)c(C(=O)NO)n2)CC1 [Compound 20, 6-Amino-2-(4-amino-4-methyl-piperidin-1-yl)-5-(2,3-dichlorophenyl)-pyrimidine-4-carboxylic Acid Hydroxyamide] | 5.07 | 6.31 | 6.82 |  |  |
| CN(c1nc(N)c(-c2cccc(Cl)c2Cl)c(C(N)=O)n1)[C@H]1CC[C@H](N)CC1 [Compound 112, 6-Amino-2-[(4-amino-cyclohexyl)-methyl-amino]-5-(2,3-dichloro-phenyl)-pyrimidine-4-carboxylic acid amide] | 6.22 | 6.17 | 7.18 |  |  |
| NCC12CCCCC1CN(c1nc(N)c(-c3cccc(Cl)c3Cl)c(C(N)=O)n1)C2 (stereo not shown) [Compound 24, 2-[3a-(aminomethyl)-octahydro-1H-isoindol-2-yl]-6-amino-5-(2,3-dichlorophenyl)pyrimidine-4-carboxamide] | 5.12 | 5.63 | 6.57 |  |  |
| Cc1nc(N2CCC3(CC2)CO[C@@H](C)[C@H]3N)nc(C(N)=O)c1-c1cccc(Cl)c1Cl [Compound 85, 2-[(3S,4S)-4-amino-3-methyl-2-oxa-8-azaspiro[4.5]decan-8-yl]-5-(2,3-dichlorophenyl)-6-methylpyrimidine-4-carboxamide] | 5.91 | 6.39 | 7.32 |  |  |
| CC1(N)CCN(c2nc(N)c(-c3cccc(Cl)c3Cl)c(C(N)=O)n2)CC1 (atropisomer, axis not shown; (M)) [Compound 26, (4M)-6-Amino-2-(4-amino-4-methyl-piperidin-1-yl)-5-(2,3-dichloro-phenyl)-pyrimidine-4-carboxylic acid amide] |  |  | < 5.00 | < 5.00 | 5.09 |
| Cc1nc(NC2CCCC(N)C2)nc(C(N)=O)c1-c1cccc(Cl)c1Cl (stereo not shown) [Compound 28, 2-(3-Amino-cyclohexyl-amino)-5-(2,3-dichloro-phenyl)-6-methyl-pyrimidine-4-carboxylic acid amide] | 4.94 | 5.79 | 6.44 |  |  |
| Cc1nc(N2CCC(C)(N)CC2)nc(C(N)=O)c1-c1cccc(Cl)c1Cl (atropisomer, axis not shown; (M)) [Compound 30, (4M)-2-(4-amino-4-methylpiperidin-1-yl)-5-(2,3-dichlorophenyl)-6-methylpyrimidine-4-carboxamide] |  |  | 6.96 |  | 6.32 |
| CC1(N)CCN(c2ncc(-c3cccc(Cl)c3Cl)c(C(N)=O)n2)CC1 [Compound 1, 2-(4-amino-4-methylpiperidin-1-yl)-5-(2,3-dichlorophenyl)pyrimidine-4-carboxamide] |  | 4.92 |  |  |  |
| C[C@@H]1OCC2(CCN(c3nc(N)c(-c4cccc(Cl)c4Cl)c(C(N)=O)n3)CC2)[C@@H]1N (single isomer, unassigned) [Compound 66] | 6.06 | 6.30 |  |  |  |
| CC1(N)CCCN(c2nc(N)c(-c3cccc(Cl)c3Cl)c(C(N)=O)n2)CC1 (stereo not shown) [Compound 91, 6-Amino-2-(4-amino-4-methyl-azepan-1-yl)-5-(2,3-dichloro-phenyl)-pyrimidine-4-carboxylic acid amide] | 5.59 |  | 7.00 |  |  |
| CC1(N)CCN(c2nc(Cl)c(-c3cccc(Cl)c3Cl)c(C(N)=O)n2)CC1 [Compound 16, 2-(4-Amino-4-methyl-piperidin-1-yl)-6-chloro-5-(2,3-dichlorophenyl)-pyrimidine-4-carboxylic Acid Amide] | 5.94 |  |  |  | 6.29 |
| Cc1nc(N2CCC(C)(N)CC2)nc(C(N)=O)c1-c1cccc(C(F)(F)F)c1Cl [Compound 111, 2-(4-Amino-4-methyl-piperidin-1-yl)-5-(2-chloro-3-trifluoromethyl-phenyl)-6-methyl-pyrimidine-4-carboxylic acid amide] | 5.33 |  | 6.28 |  |  |
| CC1(N)CCN(c2nc(N)c(-c3cccc(Cl)c3)c(C(N)=O)n2)CC1 [Compound 2, 6-Amino-2-(4-amino-4-methyl-piperidin-1-yl)-5-(3-chlorophenyl)-pyrimidine-4-carboxylic Acid Amide] |  | 5.51 | 5.68 |  |  |
